Format in all cases: biochemical
Common to all, as to details: 20 nM

One experiment addresses T1, PDE4B1 (Homo sapiens, UniProt Q07343).
T1 construct: purchased BPS 60041
The experiment can be described thus: PDE4 inhibitory activity assay (FAM-cAMP enzymatic reaction), PDE4B1. The essentials: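 Each isoform is incubated with test compound for 15 min at room temperature before FAM-cAMP substrate starts a 30-min reaction.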

The target in a further experiment is T2, PDE4A1A (Homo sapiens, UniProt P27815).
T2 construct: purchased BPS 60040
The experiment can be described thus: PDE4 inhibitory activity assay (FAM-cAMP enzymatic reaction), PDE4A1A. Put shortly: (§1)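 Inhibition rates from a fluorescence read gave IC50 values. Each enzyme (PDE4A1A, PDE4B1, PDE4D2) sat with compound for 15 min at room temperature; FAM-cAMP then started a 30 min room-temperature reaction, ended with stop solution and left 60 min more.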

In a further experiment the target is PDE4D2 (Homo sapiens, UniProt Q08499). Briefly: PDE4 inhibitory activity assay (FAM-cAMP enzymatic reaction), PDE4D2. Put shortly:
as §1

Chain of PDE4D2 (Q08499 303-809): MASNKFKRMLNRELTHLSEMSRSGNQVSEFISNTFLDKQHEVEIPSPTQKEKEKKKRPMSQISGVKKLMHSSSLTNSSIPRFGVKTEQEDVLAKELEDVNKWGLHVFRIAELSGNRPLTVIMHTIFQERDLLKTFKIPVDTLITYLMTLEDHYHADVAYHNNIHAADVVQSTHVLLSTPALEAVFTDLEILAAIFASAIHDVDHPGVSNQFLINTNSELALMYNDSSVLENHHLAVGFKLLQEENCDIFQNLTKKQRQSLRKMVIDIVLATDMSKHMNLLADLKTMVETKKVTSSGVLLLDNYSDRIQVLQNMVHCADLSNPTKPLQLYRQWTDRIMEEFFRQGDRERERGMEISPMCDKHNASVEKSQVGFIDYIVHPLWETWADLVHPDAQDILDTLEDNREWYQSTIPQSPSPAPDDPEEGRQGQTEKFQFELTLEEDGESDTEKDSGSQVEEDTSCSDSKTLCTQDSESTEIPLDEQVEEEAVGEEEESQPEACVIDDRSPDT
T2 sequence (P27815 1-647 isoform P27815-4): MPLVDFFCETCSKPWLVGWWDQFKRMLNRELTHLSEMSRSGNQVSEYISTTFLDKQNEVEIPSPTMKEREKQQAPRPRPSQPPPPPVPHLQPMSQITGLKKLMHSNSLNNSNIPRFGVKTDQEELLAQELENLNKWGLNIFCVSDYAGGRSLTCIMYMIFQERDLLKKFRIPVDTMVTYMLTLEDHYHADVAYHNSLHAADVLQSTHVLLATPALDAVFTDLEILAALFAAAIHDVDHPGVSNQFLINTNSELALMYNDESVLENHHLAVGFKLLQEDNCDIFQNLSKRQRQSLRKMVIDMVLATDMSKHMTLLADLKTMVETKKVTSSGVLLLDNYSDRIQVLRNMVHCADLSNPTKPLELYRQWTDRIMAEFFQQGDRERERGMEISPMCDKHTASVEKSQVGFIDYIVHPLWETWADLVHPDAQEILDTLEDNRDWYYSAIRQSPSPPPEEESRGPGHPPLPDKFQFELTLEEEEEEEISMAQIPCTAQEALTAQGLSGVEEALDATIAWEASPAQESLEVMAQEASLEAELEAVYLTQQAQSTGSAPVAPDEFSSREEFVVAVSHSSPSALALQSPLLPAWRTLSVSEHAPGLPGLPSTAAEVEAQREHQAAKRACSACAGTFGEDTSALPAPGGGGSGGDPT
T1 sequence (Q07343 whole entry): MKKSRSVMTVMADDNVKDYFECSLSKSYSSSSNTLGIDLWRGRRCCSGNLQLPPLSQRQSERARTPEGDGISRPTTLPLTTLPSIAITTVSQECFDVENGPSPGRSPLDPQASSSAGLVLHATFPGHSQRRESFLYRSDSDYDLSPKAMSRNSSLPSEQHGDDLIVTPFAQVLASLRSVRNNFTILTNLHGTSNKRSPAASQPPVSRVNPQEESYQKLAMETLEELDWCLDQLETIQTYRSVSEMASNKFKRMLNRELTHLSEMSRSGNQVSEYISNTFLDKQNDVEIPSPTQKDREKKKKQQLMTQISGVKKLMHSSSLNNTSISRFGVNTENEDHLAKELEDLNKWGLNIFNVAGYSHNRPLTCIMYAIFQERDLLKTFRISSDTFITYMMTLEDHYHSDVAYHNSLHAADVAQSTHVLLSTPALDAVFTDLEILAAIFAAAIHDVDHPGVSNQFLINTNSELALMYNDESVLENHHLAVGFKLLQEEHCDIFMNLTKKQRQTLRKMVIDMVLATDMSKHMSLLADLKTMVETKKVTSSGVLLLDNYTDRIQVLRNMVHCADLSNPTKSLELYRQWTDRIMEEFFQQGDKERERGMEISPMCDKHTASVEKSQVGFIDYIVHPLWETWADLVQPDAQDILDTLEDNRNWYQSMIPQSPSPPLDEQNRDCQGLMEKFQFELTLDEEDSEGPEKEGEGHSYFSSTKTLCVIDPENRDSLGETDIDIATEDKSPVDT

Regarding `CCOc1nc([C@@H](CS(C)(=O)=O)n2c(=O)n(C)c3c(C)c(-c4ccccc4C)cnc32)ccc1OC(F)F` [Ex. 68, (S)-3-(1-(5-(difluoromethoxy)-6-ethoxypyridin-2-yl)-2-(methylsulfonyl)ethyl)-1,7-dimethyl-6-(o-methylphenyl)-1H-imidazo[4,5-b]pyridin-2(3H)-one], the “PDE4 B1 inhibitory effect at 20 nM” value at PDE4B1 is “+”. At PDE4A1A, the “PDE4 A1 inhibitory effect at 20 nM” value was “+”. In addition, the “PDE4 D2 inhibitory effect at 20 nM” value on PDE4D2 was “+”.
In the case of `CCOc1nc([C@@H](CS(C)(=O)=O)n2c(=O)n(CC(F)F)c3c(C)c(-c4ccc(F)cc4)cnc32)ccc1OC` [Ex. 58, (S)-1-(2,2-difluoroethyl)-3-(1-(6-ethoxy-5-methoxypyridin-2-yl)-2-(methylsulfonyl)ethyl)-6-(4-fluorophenyl)-7-methyl-1H-imidazo[4,5-b]pyridin-2(3H)-one], the “PDE4 B1 inhibitory effect at 20 nM” value at PDE4B1 is reported as “+”. Further, on PDE4A1A, the “PDE4 A1 inhibitory effect at 20 nM” value is “+”. Also, at PDE4D2, the “PDE4 D2 inhibitory effect at 20 nM” value is “+”.
As for `CCOc1nc([C@@H](CS(C)(=O)=O)n2c(=O)n(C)c3cc(-c4ccc(F)cc4OC)cnc32)ccc1OC` [Ex. 120, (S)-6-(4-fluoro-2-methoxyphenyl)-3-(1-(6-ethoxy-5-methoxypyridin-2-yl)-2-(methylsulfonyl)ethyl)-1-methyl-1H-imidazo[4,5-b]pyridin-2(3H)-one], at PDE4B1, the “PDE4 B1 inhibitory effect at 20 nM” value is recorded as “+”. Moreover, the “PDE4 A1 inhibitory effect at 20 nM” value on PDE4A1A is reported as “+”. Moreover, the “PDE4 D2 inhibitory effect at 20 nM” value on PDE4D2 is given as “+”.
For `CCOc1nc([C@@H](CS(C)(=O)=O)n2c(=O)n(CC)c3cc(-c4ccccn4)cnc32)ccc1OC` [Ex. 124, (S)-3-(1-(6-ethoxy-5-methoxypyridin-2-yl)-2-(methylsulfonyl)ethyl)-1-ethyl-6-(pyridin-2-yl)-1H-imidazo[4,5-b]pyridin-2(3H)-one], the “PDE4 B1 inhibitory effect at 20 nM” value on PDE4B1 was “+”. The “PDE4 A1 inhibitory effect at 20 nM” value on PDE4A1A is reported as “+”. Besides, the “PDE4 D2 inhibitory effect at 20 nM” value at PDE4D2 is “+”.
For the compound `CCOc1nc([C@@H](CS(C)(=O)=O)n2c(=O)[nH]c3cc(-c4ccccc4OC)ccc32)ccc1OC` [Ex. 143, (S)-1-(1-(6-ethoxy-5-methoxypyridin-2-yl)-2-(methylsulfonyl)ethyl)-5-(2-methoxyphenyl)-1H-benzo[d]imidazol-2(3H)-one], on PDE4B1, the “PDE4 B1 inhibitory effect at 20 nM” value was “+”. Besides, the “PDE4 A1 inhibitory effect at 20 nM” value at PDE4A1A was “+”. For the same compound, at PDE4D2, the “PDE4 D2 inhibitory effect at 20 nM” value is “+”.
As to `CCOc1nc([C@H](CS(C)(=O)=O)n2c(=O)n(C)c3c(C)c(-c4ccccc4F)cnc32)ccc1OC` [Ex. 22], at PDE4B1, the “PDE4 B1 inhibitory effect at 20 nM” value is listed as “−”. Further, the “PDE4 A1 inhibitory effect at 20 nM” value on PDE4A1A is listed as “−”. Also, the “PDE4 D2 inhibitory effect at 20 nM” value at PDE4D2 is listed as “−”.
With `CCOc1nc([C@H](CS(C)(=O)=O)n2c(=O)n(CC)c3c(C)c(-c4ccc(F)cc4)cnc32)ccc1OC` [Ex. 49, (R)-3-(1-(6-ethoxy-5-methoxypyridin-2-yl)-2-(methylsulfonyl)ethyl)-1-ethyl-6-(4-fluorophenyl)-7-methyl-1H-imidazo[4,5-b]pyridin-2(3H)-one], the “PDE4 B1 inhibitory effect at 20 nM” value at PDE4B1 is recorded as “−”. The “PDE4 A1 inhibitory effect at 20 nM” value on PDE4A1A is reported as “−”. Also, the “PDE4 D2 inhibitory effect at 20 nM” value at PDE4D2 is on record as “−”.
For the compound `CCOc1nc([C@@H](CS(C)(=O)=O)n2c(=O)[nH]c3cc(-c4c(C)cccc4C)ccc32)ccc1OC` [Ex. 168, (S)-5-(2,6-dimethylphenyl)-1-(1-(6-ethoxy-5-methoxypyridin-2-yl)-2-(methylsulfonyl)ethyl)-1H-benzo[d]imidazol-2(3H)-one], the “PDE4 B1 inhibitory effect at 20 nM” value on PDE4B1 was “+”. Also, at PDE4A1A, the “PDE4 A1 inhibitory effect at 20 nM” value is given as “+”. For the same compound, the “PDE4 D2 inhibitory effect at 20 nM” value on PDE4D2 is recorded as “+”.
In the case of `CCOc1nc([C@@H](CS(C)(=O)=O)n2c(=O)[nH]c3c(C)c(-c4ccccc4C)cnc32)ccc1OC(F)F` [Ex. 64, (S)-3-(1-(5-(difluoromethoxy)-6-ethoxypyridin-2-yl)-2-(methylsulfonyl)ethyl)-7-methyl-6-(o-methylphenyl)-1H-imidazo[4,5-b]pyridin-2(3H)-one], the “PDE4 B1 inhibitory effect at 20 nM” value on PDE4B1 was “+”. The “PDE4 A1 inhibitory effect at 20 nM” value at PDE4A1A is listed as “+”. Moreover, the “PDE4 D2 inhibitory effect at 20 nM” value on PDE4D2 is on record as “+”.
With `CCOc1nc([C@@H](CS(C)(=O)=O)n2c(=O)[nH]c3cc(-c4cc(C)ccc4F)cnc32)ccc1OC` [Ex. 113, (S)-6-(2-fluoro-5-methylphenyl)-3-(1-(6-ethoxy-5-methoxypyridin-2-yl)-2-(methylsulfonyl)ethyl)-1H-imidazo[4,5-b]pyridin-2(3H)-one], the “PDE4 B1 inhibitory effect at 20 nM” value at PDE4B1 is “+”. Also, the “PDE4 A1 inhibitory effect at 20 nM” value at PDE4A1A is “+”. In addition, the “PDE4 D2 inhibitory effect at 20 nM” value at PDE4D2 is listed as “+”.
For the compound `CCOc1nc([C@@H](CS(C)(=O)=O)n2c(=O)n(CC(F)F)c3c(C)c(-c4ccccc4)cnc32)ccc1OC` [Ex. 57, (S)-1-(2,2-difluoroethyl)-3-(1-(6-ethoxy-5-methoxypyridin-2-yl)-2-(methylsulfonyl)ethyl)-7-methyl-6-phenyl-1H-imidazo[4,5-b]pyridin-2(3H)-one], on PDE4B1, the “PDE4 B1 inhibitory effect at 20 nM” value is recorded as “+”. The “PDE4 A1 inhibitory effect at 20 nM” value on PDE4A1A is given as “+”. Moreover, the “PDE4 D2 inhibitory effect at 20 nM” value at PDE4D2 is listed as “+”.
Take `CCOc1nc([C@@H](CS(C)(=O)=O)n2c(=O)[nH]c3cc(-c4cccc(C)c4C)cnc32)ccc1OC` [Ex. 103, (S)-6-(2,3-dimethylphenyl)-3-(1-(6-ethoxy-5-methoxypyridin-2-yl)-2-(methylsulfonyl)ethyl)-1H-imidazo[4,5-b]pyridin-2(3H)-one]: the “PDE4 B1 inhibitory effect at 20 nM” value on PDE4B1 was “+”. The “PDE4 A1 inhibitory effect at 20 nM” value at PDE4A1A is listed as “+”. Also, on PDE4D2, the “PDE4 D2 inhibitory effect at 20 nM” value is reported as “+”.
On to `CCOc1nc([C@@H](CS(C)(=O)=O)n2c(=O)n(C)c3cc(-c4cc(OC)ccc4F)ccc32)ccc1OC` [Ex. 182, (S)-5-(2-fluoro-5-methoxyphenyl)-1-(1-(6-ethoxy-5-methoxypyridin-2-yl)-2-(methylsulfonyl)ethyl)-3-methyl-1H-benzo[d]imidazol-2(3H)-one], for which the “PDE4 B1 inhibitory effect at 20 nM” value on PDE4B1 is recorded as “+”. Besides, the “PDE4 A1 inhibitory effect at 20 nM” value on PDE4A1A is “+”. For the same compound, at PDE4D2, the “PDE4 D2 inhibitory effect at 20 nM” value is “+”.
As to `CCOc1nc([C@@H](CS(C)(=O)=O)n2c(=O)[nH]c3c(C)c(-c4c(F)cccc4OC)cnc32)ccc1OC` [Ex. 46, (S)-6-(6-fluoro-2-methoxyphenyl)-3-(1-(6-ethoxy-5-methoxypyridin-2-yl)-2-(methylsulfonyl)ethyl)-7-methyl-1H-imidazo[4,5-b]pyridin-2(3H)-one], the “PDE4 B1 inhibitory effect at 20 nM” value at PDE4B1 is reported as “+”. Further, on PDE4A1A, the “PDE4 A1 inhibitory effect at 20 nM” value is “+”. For the same compound, the “PDE4 D2 inhibitory effect at 20 nM” value on PDE4D2 is “+”.
For the compound `CCOc1nc([C@@H](CS(C)(=O)=O)n2c(=O)n(CC(F)F)c3c(C)c(-c4ccccc4C)cnc32)ccc1OC` [Ex. 59, (S)-1-(2,2-difluoroethyl)-3-(1-(6-ethoxy-5-methoxypyridin-2-yl)-2-(methylsulfonyl)ethyl)-7-methyl-6-(o-methylphenyl)-1H-imidazo[4,5-b]pyridin-2(3H)-one], the “PDE4 B1 inhibitory effect at 20 nM” value at PDE4B1 is “+”. Besides, at PDE4A1A, the “PDE4 A1 inhibitory effect at 20 nM” value was “+”. The “PDE4 D2 inhibitory effect at 20 nM” value at PDE4D2 is given as “+”.
For the compound `CCOc1nc([C@@H](CS(C)(=O)=O)n2c(=O)n(C)c3cc(-c4cc(C)ccc4C)cnc32)ccc1OC` [Ex. 102, (S)-6-(2,5-dimethylphenyl)-3-(1-(6-ethoxy-5-methoxypyridin-2-yl)-2-(methylsulfonyl)ethyl)-1-methyl-1H-imidazo[4,5-b]pyridin-2(3H)-one], at PDE4B1, the “PDE4 B1 inhibitory effect at 20 nM” value is recorded as “+”. Besides, the “PDE4 A1 inhibitory effect at 20 nM” value on PDE4A1A is recorded as “+”. Also, the “PDE4 D2 inhibitory effect at 20 nM” value on PDE4D2 is “+”.
As to `CCOc1nc([C@@H](CS(C)(=O)=O)n2c(=O)n(C)c3cc(-c4cc(F)ccc4OC)ccc32)ccc1OC` [Ex. 187, (S)-5-(5-fluoro-2-methoxyphenyl)-1-(1-(6-ethoxy-5-methoxypyridin-2-yl)-2-(methylsulfonyl)ethyl)-3-methyl-1H-benzo[d]imidazol-2(3H)-one], the “PDE4 B1 inhibitory effect at 20 nM” value on PDE4B1 is listed as “+”. Further, the “PDE4 A1 inhibitory effect at 20 nM” value at PDE4A1A was “+”. Further, the “PDE4 D2 inhibitory effect at 20 nM” value at PDE4D2 is given as “+”.
Regarding `CCOc1nc([C@@H](CS(C)(=O)=O)n2c(=O)n(C)c3cc(-c4ccc(F)cc4C)cnc32)ccc1OC` [Ex. 108, (S)-6-(4-fluoro-2-methylphenyl)-3-(1-(6-ethoxy-5-methoxypyridin-2-yl)-2-(methylsulfonyl)ethyl)-1-methyl-1H-imidazo[4,5-b]pyridin-2(3H)-one], the “PDE4 B1 inhibitory effect at 20 nM” value on PDE4B1 is reported as “+”. In addition, at PDE4A1A, the “PDE4 A1 inhibitory effect at 20 nM” value was “+”. Moreover, on PDE4D2, the “PDE4 D2 inhibitory effect at 20 nM” value is “+”.
Regarding `CCOc1nc([C@@H](CS(C)(=O)=O)n2c(=O)[nH]c3c(C)c(-c4ccc(C)cc4F)cnc32)ccc1OC` [Ex. 40, (S)-6-(2-fluoro-4-methylphenyl)-3-(1-(6-ethoxy-5-methoxypyridin-2-yl)-2-(methylsulfonyl)ethyl)-7-methyl-1H-imidazo[4,5-b]pyridin-2(3H)-one], the “PDE4 B1 inhibitory effect at 20 nM” value on PDE4B1 is listed as “+”. Further, the “PDE4 A1 inhibitory effect at 20 nM” value on PDE4A1A is reported as “+”. Also, the “PDE4 D2 inhibitory effect at 20 nM” value at PDE4D2 was “+”.
`CCOc1nc([C@@H](CS(C)(=O)=O)N2Cc3cccc(NC(=O)CC)c3C2=O)ccc1OC` [Ex. 219, (S)—N-(2-(1-(6-ethoxy-5-methoxypyridin-2-yl)-2-(methylsulfonyl)ethyl)-3-oxoisoindolin-4-yl)propionamide]: at PDE4B1, the “PDE4 B1 inhibitory effect at 20 nM” value is on record as “+”. Also, the “PDE4 A1 inhibitory effect at 20 nM” value at PDE4A1A is “+”. The “PDE4 D2 inhibitory effect at 20 nM” value on PDE4D2 is listed as “+”.
Regarding `CCOc1nc([C@@H](CS(C)(=O)=O)n2c(=O)n(C)c3cc(-c4ccccc4CC)cnc32)ccc1OC` [Ex. 82, (S)-3-(1-(6-ethoxy-5-methoxypyridin-2-yl)-2-(methylsulfonyl)ethyl)-6-(2-ethylphenyl)-1-methyl-1H-imidazo[4,5-b]pyridin-2(3H)-one], the “PDE4 B1 inhibitory effect at 20 nM” value on PDE4B1 is “+”. Further, the “PDE4 A1 inhibitory effect at 20 nM” value on PDE4A1A is reported as “+”. For the same compound, the “PDE4 D2 inhibitory effect at 20 nM” value on PDE4D2 is listed as “+”.

(Values after patent US20230141101A1, “PDE4 INHIBITOR COMPOUND AND MEDICAL USE THEREOF” (Suzhou Longbotai Pharmaceuticals Co., Ltd., priority 2020, published 2023).)
